Reference: patent US20240150340A1, “CDK Inhibitors And Their Use As Pharmaceuticals” (Prelude Therapeutics Incorporated, priority 2022, published 2024)

Columns and labels:
OVCAR3 p-RB = assay: pRB ICW Assay in OVCAR3 Cells; type: cell-based; conditions: Homo sapiens, OVCAR-3, incubated with compound for 2 hours
How it was run: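 OVCAR3 cells were treated 2 h at 37° C. with a 9-point half-log compound series, duplicate wells, with 10 μM reference compound as maximum inhibition. Fixed, permeabilized cells were stained with anti-phospho-RB plus DRAQ5 and imaged at 700/800 nm (In-Cell Western).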

CDK4/Cyclin D1 = target: T1, CDK4/Cyclin D1 (Homo sapiens, UniProt P11802); assay: CDK4/CyclinD1 Enzymatic Activity Assay (TR-FRET); type: biochemical; conditions: ATP 2 mM final, read-out: CDK4_D1 IC50
T1 construct: purchased ProQinase; host or cells: insect cell
How it was run: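 Insect-cell-expressed CDK4/Cyclin D1 (1 nM) with ULight-4E-BP1 (100 nM) and 2 mM ATP in HEPES pH 7.4; 9-dose 3-fold compound series preincubated 20 min, reaction started with 10 mM MgCl2, 45 min at 37° C. Europium anti-P-4E-BP1 TR-FRET read; IC50 from 4-parameter Hill fit.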

CDK2/Cyclin E2 = target: T2, CDK2/Cyclin E2 (Homo sapiens, UniProt P24941); assay: CDK2/CyclinE2 Enzymatic Activity Assay (TR-FRET); type: biochemical; conditions: ATP 1 mM final, read-out: CDK2_E1 IC50
T2 construct: Recombinant protein complex CDK2/Cyclin E2, expressed from insect cell, was purchased from ProQinase
How it was run: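 Recombinant insect-cell CDK2/Cyclin E2 (1 nM) phosphorylated ULight-4E-BP1 (50 nM) with 1 mM ATP in HEPES pH 7.4 buffer, after 20 min compound preincubation; MgCl2 (10 mM) started the 45 min reaction at 37° C. Europium anti-phospho-4E-BP1 TR-FRET read; 9-dose IC50 by 4-parameter fit.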

T1 sequence (P11802 whole entry): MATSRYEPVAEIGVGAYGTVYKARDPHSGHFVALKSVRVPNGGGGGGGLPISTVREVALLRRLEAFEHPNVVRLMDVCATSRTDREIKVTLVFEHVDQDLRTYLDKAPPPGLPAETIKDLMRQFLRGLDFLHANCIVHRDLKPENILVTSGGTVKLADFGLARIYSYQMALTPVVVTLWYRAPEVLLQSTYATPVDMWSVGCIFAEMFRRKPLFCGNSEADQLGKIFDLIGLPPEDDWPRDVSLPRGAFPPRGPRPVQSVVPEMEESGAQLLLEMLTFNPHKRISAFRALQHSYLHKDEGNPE
T1 sequence (P24385 whole entry partner): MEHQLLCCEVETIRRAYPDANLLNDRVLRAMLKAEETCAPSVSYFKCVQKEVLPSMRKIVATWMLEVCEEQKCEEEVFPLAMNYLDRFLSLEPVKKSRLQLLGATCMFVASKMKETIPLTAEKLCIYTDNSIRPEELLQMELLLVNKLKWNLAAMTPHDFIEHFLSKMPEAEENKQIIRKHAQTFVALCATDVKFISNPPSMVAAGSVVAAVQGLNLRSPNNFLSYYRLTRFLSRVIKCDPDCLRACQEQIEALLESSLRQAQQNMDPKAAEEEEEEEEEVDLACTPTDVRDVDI

Row | IC50 (OVCAR3 p-RB) [nM] | IC50 (CDK4/Cyclin D1) [nM] | IC50 (CDK2/Cyclin E2) [nM] | SMILES
1 | ≤ 100 | ≤ 100 | ≤ 100 | CC(O)c1sc(-c2nc(NC3CCN(S(=O)(=O)c4cn(C)cn4)CC3)ncc2C(F)(F)F)cc1C#N (stereo not drawn) [Example 33, 2-(1-hydroxyethyl)-5-(2-((1-((1-methyl-1H-imidazol-4-yl)sulfonyl)piperidin-4-yl)amino)-5-(trifluoromethyl)pyrimidin-4-yl)thiophene-3-carbonitrile]
2 | ≤ 100 | ≤ 100 | ≤ 100 | CC(O)c1sc(-c2nc(N[C@H]3CCN(S(=O)(=O)c4cnn(C)c4)C[C@H]3F)ncc2C(F)(F)F)cc1C#N (stereo partly drawn) [Example 34, 5-(2-(((3R,4S)-3-fluoro-1-((1-methyl-1H-pyrazol-4-yl)sulfonyl)piperidin-4-yl)amino)-5-(trifluoromethyl)pyrimidin-4-yl)-2-(1-hydroxyethyl)thiophene-3-carbonitrile]
3 | ≤ 100 | ≤ 100 | ≤ 100 | CC(O)c1sc(-c2nc(N[C@H]3CCN(S(=O)(=O)c4cn(C)cn4)C[C@H]3F)ncc2C(F)(F)F)cc1C#N (stereo partly drawn) [Example 35, 5-(2-(((3R,4S)-3-fluoro-1-((1-methyl-1H-imidazol-4-yl)sulfonyl)piperidin-4-yl)amino)-5-(trifluoromethyl)pyrimidin-4-yl)-2-(1-hydroxyethyl)thiophene-3-carbonitrile]
4 | ≤ 100 | ≤ 100 | ≤ 100 | CC(O)c1sc(-c2nc(N[C@@H]3CCN(S(=O)(=O)c4cnn(C)c4)C[C@H]3F)ncc2C(F)(F)F)cc1C#N (stereo partly drawn) [Example 36, 5-(2-(((3R,4R)-3-fluoro-1-((1-methyl-1H-pyrazol-4-yl)sulfonyl)piperidin-4-yl)amino)-5-(trifluoromethyl)pyrimidin-4-yl)-2-(1-hydroxyethyl)thiophene-3-carbonitrile]
5 | ≤ 100 | ≤ 100 | ≤ 100 | CC(O)c1sc(-c2nc(N[C@@H]3CCN(S(=O)(=O)c4cn(C)cn4)C[C@H]3F)ncc2C(F)(F)F)cc1C#N (stereo partly drawn) [Example 37, 5-(2-(((3R,4R)-3-fluoro-1-((1-methyl-1H-imidazol-4-yl)sulfonyl)piperidin-4-yl)amino)-5-(trifluoromethyl)pyrimidin-4-yl)-2-(1-hydroxyethyl)thiophene-3-carbonitrile]
6 | 100 to 500 | 100 to 500 | ≤ 100 | C[C@@H]1CN(S(=O)(=O)c2cnn(C)c2)CC[C@@H]1Nc1ncc(C(F)(F)F)c(-c2cc(C#N)c(CC(C)(C)O)s2)n1 [Example 38, 2-(2-hydroxy-2-methylpropyl)-5-(2-(((3R,4S)-3-methyl-1-((1-methyl-1H-pyrazol-4-yl)sulfonyl)piperidin-4-yl)amino)-5-(trifluoromethyl)pyrimidin-4-yl)thiophene-3-carbonitrile]
7 | ≤ 100 | ≤ 100 | ≤ 100 | Cn1cnc(S(=O)(=O)N2CCC(Nc3ncc(C(F)(F)F)c(-c4cc(C#N)c(CC(C)(C)O)s4)n3)CC2)c1 [Example 39, 2-(2-hydroxy-2-methylpropyl)-5-(2-((1-((1-methyl-1H-imidazol-4-yl)sulfonyl)piperidin-4-yl)amino)-5-(trifluoromethyl)pyrimidin-4-yl)thiophene-3-carbonitrile]
8 | 100 to 500 | 100 to 500 | ≤ 100 | C[C@@H]1CN(S(=O)(=O)c2cn(C)cn2)CC[C@@H]1Nc1ncc(C(F)(F)F)c(-c2cc(C#N)c(CC(C)(C)O)s2)n1 [Example 40, 2-(2-hydroxy-2-methylpropyl)-5-(2-(((3R,4S)-3-methyl-1-((1-methyl-1H-imidazol-4-yl)sulfonyl)piperidin-4-yl)amino)-5-(trifluoromethyl)pyrimidin-4-yl)thiophene-3-carbonitrile]
9 | ≤ 100 | ≤ 100 | ≤ 100 | Cn1cc(S(=O)(=O)N2CC[C@H](Nc3ncc(C(F)(F)F)c(-c4cc(C#N)c(CC(C)(C)O)s4)n3)[C@H](F)C2)cn1 [Example 41, 5-(2-(((3R,4S)-3-fluoro-1-((1-methyl-1H-pyrazol-4-yl)sulfonyl)piperidin-4-yl)amino)-5-(trifluoromethyl)pyrimidin-4-yl)-2-(2-hydroxy-2-methylpropyl)thiophene-3-carbonitrile]
10 | ≤ 100 | ≤ 100 | ≤ 100 | Cn1cnc(S(=O)(=O)N2CC[C@H](Nc3ncc(C(F)(F)F)c(-c4cc(C#N)c(CC(C)(C)O)s4)n3)[C@H](F)C2)c1 [Example 42, 5-(2-(((3R,4S)-3-fluoro-1-((1-methyl-1H-imidazol-4-yl)sulfonyl)piperidin-4-yl)amino)-5-(trifluoromethyl)pyrimidin-4-yl)-2-(2-hydroxy-2-methylpropyl)thiophene-3-carbonitrile]
11 | > 500 | 100 to 500 | ≤ 100 | C[C@@H]1CN(S(C)(=O)=O)CC[C@@H]1Nc1ncc(C(F)(F)F)c(-c2cc(C(N)=O)c(CC(C)(C)O)s2)n1 [Example 43, 2-(2-hydroxy-2-methylpropyl)-5-(2-(((3R,4S)-3-methyl-1-(methylsulfonyl)piperidin-4-yl)amino)-5-(trifluoromethyl)pyrimidin-4-yl)thiophene-3-carboxamide]
12 | ≤ 100 | ≤ 100 | ≤ 100 | C[C@@H]1CN(S(=O)(=O)c2cnn(C)c2)CC[C@@H]1Nc1ncc(C(F)(F)F)c(-c2cc(C(N)=O)c(CC(C)(C)O)s2)n1 [Example 44, 2-(2-hydroxy-2-methylpropyl)-5-(2-(((3R,4S)-3-methyl-1-((1-methyl-1H-pyrazol-4-yl)sulfonyl)piperidin-4-yl)amino)-5-(trifluoromethyl)pyrimidin-4-yl)thiophene-3-carboxamide]
13 | ≤ 100 | ≤ 100 | ≤ 100 | Cn1cnc(S(=O)(=O)N2CCC(Nc3ncc(C(F)(F)F)c(-c4cc(C(N)=O)c(CC(C)(C)O)s4)n3)CC2)c1 [Example 45, 2-(2-hydroxy-2-methylpropyl)-5-(2-((1-((1-methyl-1H-imidazol-4-yl)sulfonyl)piperidin-4-yl)amino)-5-(trifluoromethyl)pyrimidin-4-yl)thiophene-3-carboxamide]
14 | ≤ 100 | ≤ 100 | ≤ 100 | Cn1cc(S(=O)(=O)N2CC[C@H](Nc3ncc(C(F)(F)F)c(-c4cc(C(N)=O)c(CC(C)(C)O)s4)n3)[C@H](F)C2)cn1 [Example 46, 5-(2-(((3R,4S)-3-fluoro-1-((1-methyl-1H-pyrazol-4-yl)sulfonyl)piperidin-4-yl)amino)-5-(trifluoromethyl)pyrimidin-4-yl)-2-(2-hydroxy-2-methylpropyl)thiophene-3-carboxamide]
15 | 100 to 500 | ≤ 100 | ≤ 100 | Cn1cnc(S(=O)(=O)N2CC[C@H](Nc3ncc(C(F)(F)F)c(-c4cc(C(N)=O)c(CC(C)(C)O)s4)n3)[C@H](F)C2)c1 [Example 47, 5-(2-(((3R,4S)-3-fluoro-1-((1-methyl-1H-imidazol-4-yl)sulfonyl)piperidin-4-yl)amino)-5-(trifluoromethyl)pyrimidin-4-yl)-2-(2-hydroxy-2-methylpropyl)thiophene-3-carboxamide]
16 | ≤ 100 | ≤ 100 | ≤ 100 | Cn1cc(S(=O)(=O)N2CC[C@@H](Nc3ncc(C(F)(F)F)c(-c4cc(C(N)=O)c(CC(C)(C)O)s4)n3)[C@H](F)C2)cn1 [Example 48, 5-(2-(((3R,4R)-3-fluoro-1-((1-methyl-1H-pyrazol-4-yl)sulfonyl)piperidin-4-yl)amino)-5-(trifluoromethyl)pyrimidin-4-yl)-2-(2-hydroxy-2-methylpropyl)thiophene-3-carboxamide]
17 | 100 to 500 | ≤ 100 | ≤ 100 | Cn1cnc(S(=O)(=O)N2CC[C@@H](Nc3ncc(C(F)(F)F)c(-c4cc(C(N)=O)c(CC(C)(C)O)s4)n3)[C@H](F)C2)c1 [Example 49, 5-(2-(((3R,4R)-3-fluoro-1-((1-methyl-1H-imidazol-4-yl)sulfonyl)piperidin-4-yl)amino)-5-(trifluoromethyl)pyrimidin-4-yl)-2-(2-hydroxy-2-methylpropyl)thiophene-3-carboxamide]
18 | ≤ 100 | ≤ 100 | ≤ 100 | Cn1cnc(S(=O)(=O)N2CCC(Nc3ncc(C(F)(F)F)c(-c4cc(C(N)=O)ns4)n3)CC2)c1 [Example 50, 5-(2-((1-((1-methyl-1H-imidazol-4-yl)sulfonyl)piperidin-4-yl)amino)-5-(trifluoromethyl)pyrimidin-4-yl)isothiazole-3-carboxamide]
19 | ≤ 100 | ≤ 100 | ≤ 100 | Cn1cc(S(=O)(=O)N2CCC(Nc3ncc(C(F)(F)F)c(-c4cc(C(N)=O)c(CC(C)(C)O)s4)n3)CC2)cn1 [Example 51, 2-(2-hydroxy-2-methylpropyl)-5-(2-((1-((1-methyl-1H-pyrazol-4-yl)sulfonyl)piperidin-4-yl)amino)-5-(trifluoromethyl)pyrimidin-4-yl)thiophene-3-carboxamide]
20 | 100 to 500 | 100 to 500 | ≤ 100 | Cc1sc(-c2nc(N[C@H]3CCN(S(C)(=O)=O)C[C@H]3C)ncc2C(F)(F)F)cc1C(N)=O [Example 52, 2-methyl-5-(2-(((3R,4S)-3-methyl-1-(methylsulfonyl)piperidin-4-yl)amino)-5-(trifluoromethyl)pyrimidin-4-yl)thiophene-3-carboxamide]
